In patent US20180030093A1, “SELF-ASSEMBLING ULTRASHORT ALIPHATIC CYCLIC PEPTIDES FOR BIOMEDICAL APPLICATIONS” (Agency for Science, Technology and Research, priority 2015, published 2018):
“Also recorded” adds a separate entry of the source. Non-standard residues stand in square brackets, D forms with d. Residues, ends and D or L forms follow the SMILES beside them.

Assays:
[1] = Stimuli response of gelation to salt (1× PBS); type: physicochemical; conditions: 5 mg/mL in 1× PBS, after vortexing
Method: Our previous studies on the parent peptide Ac-LIVAGK-NH2 have shown stimuli responsive behaviour to salt, which allows to reduce the minimum gelation concentration by 50%. […] For this purpose, cLK6 was dissolved in 9 parts of water and afterwards 1 part of 10× PBS solution was added.

[2] = Solubility of the cyclic peptides in MilliQ water
Method: (§1) In order to determine the minimum gelation concentration in water, the cyclic peptides were attempted to be dissolved in MilliQ water.
(§2) In order to introduce a charged amino acid residue cLK6 was synthesized and its ability to form hydrogels was investigated. For this purpose cLK6 was dissolved at a concentration of 10 mg/mL in water.

[3] = Gelation / self-assembly in water; type: physicochemical
Method: as §1, §2

[4] = stimuli responsive behaviour to salt; applicant's previous studies; cited from earlier work

Q: Which “gel formation in salt solution” value [1] does the source give for CC[C@H](C)[C@@H]1NC(=O)[C@@H](CC(C)C)NC(=O)[C@H](CCCCN)NC(=O)CNC(=O)[C@H](C)NC(=O)[C@@H](C(C)C)NC1=O [cLK6, cLIVAGK] (cyclo([dL]I[dV]AGK)) here?
A: only peptide aggregation, resulting in precipitation

Q: What about the “solubility in water at 10 mg/mL” value ([2]; 10 mg/mL in water) of the same molecule?
A: full solubility was only achieved, when the peptide solution was heated at 60 °C for about 2 h

Q: And the gel formation ([3]; 5 mg/mL in water, prepared in the same way, overnight)?
A: clear hydrogel was formed

Q: What about the gel formation ([3]; 10 mg/mL in water, heated at 60° C., then standing at room temperature) of the same molecule?
A: opaque sol gel was formed

Q: What about the gel formation ([3]; peptide concentration further reduced below 5 mg/mL in water) of the same molecule?
A: no hydrogel formation

Q: Which solubility in water ([2]; MilliQ water) does the source give for CC[C@H](C)[C@@H]1NC(=O)[C@@H](CC(C)C)NC(=O)[C@H](CO)NC(=O)CNC(=O)[C@H](C)NC(=O)[C@@H](C(C)C)NC1=O [cLS6, cLIVAGS] (cyclo([dL]I[dV]AGS)) here?
A: low solubility; also recorded: limited water solubility

Q: What about the self-assembly in water ([3]; dissolved in hexafluoroisopropanol (HFIP) and dropped slowly into water) of the same molecule?
A: gelatinous “precipitate” is formed; also recorded: still displays self-assembling properties

Q: Which “reduction of the minimum gelation concentration by salt” value [4] does the source give for “Ac-LIVAGK-NH2 [linear parent ultrashort peptide of cLK6, previously reported by the inventors]” here?
A: 50%
